Where two headings read alike, the source gives them in different places.
Columns and labels:
U937 cells [1] = tested on: U937 cells
Excerpt: (§1) In step 160, the data corresponding to the different compound concentrations is normalized. In one embodiment, measurements generated from the vehicle-treated cell image analysis can be used. […] As such, a normalization of the data obtained from the compound-treated cells can be determined by subtracting the baseline response of the vehicle-treated cells from the measurements of the responses of the compound-treated cells. Measured values of the compound-treated cells that are below baseline levels can be notated as lacking a response, and can be ignored in further analysis, if desired.
(§2) This can be done by calculating a mean value for the measured target at each concentration level, taking into account all of the samples corresponding to the particular concentration level.
(§3) For example, mean values for gross markers can be computed for the number of cells using either the number of cell bodies or the number of nuclei detected. For specific markers, mean values can be computed for each of the features (e.g., CD54 (ICAM-1) intensity). […] Other mean values can also be used. In addition, other representative values can also be used for each concentration of the compound, such as a highest measured value, a lowest measured value, or other representative values.
(§4) This can be done by plotting on a graph the average value of the target for each concentration. […] Using the plotted points, a simple curve 170 can be generated, as shown. This simple curve represents the dose response curve.
(§5) In one embodiment, qualifying the dose response curve can be accomplished by categorizing the curve as “increasing,” “decreasing,” or “flat.”
(§6) The predefined range can be determined using a standard deviation value, a percentage of total range, or a percentage of highest value. […] In the experimental results, discussed below, the predefined range was determined using a percentage of the highest value for the curve.
(§7) In step 170, a decision matrix is applied to the qualified dose response of one or more of the measured parameters to predict skin sensitization. The qualified dose response of any of the measured cellular targets can be used. For example, the cellular targets used in the decision matrix can be selected from the gross markers, specific markers and/or the functional response of the cells. Using the selected properties, a decision matrix can be constructed based upon the expected behavior of the cell type in response to the compound used. The dose response curve behavior (e.g., “increasing,” “flat,” or “decreasing”) of the measured cellular properties can then be used to determine the prediction of sensitizing capability of the compound. In some embodiments, the decision matrix can also be used to determine if the compound is toxic.
(§8) To determine a predicted skin sensitivity of a tested compound, one simply finds the matrix location corresponding to both of the qualified dose responses determined for the tested compound, and the entry within that matrix location identifies the predicted skin sensitivity of the compound.
(§9) The compounds for which skin sensitivity is desired can then be introduced to the immune effector cells. For each concentration level of each compound, 100 μl of the 2× concentrated compound solution can be added to the corresponding wells. Similarly, 100 μl of vehicle solution can be added to the vehicle control wells and the 2× solution of the negative and positive controls can be added to the negative and positive control wells, respectively. The plate can then be incubated for 24 hours at 37° C. in 5% CO2.
(§10) After incubation, the plate can be centrifuged for 5 minutes at 125×g. The media can then be aspirated from the wells after which 50 μl of pre-warmed (e.g., to 37° C.) 4% paraformaldehyde can be added to each well.

U937 cells [2] = assay: High-content imaging skin sensitizing prediction assay: U937 cells treated 24 h with a range of compound concentrations, CD54 intensity per cell and cell number dose response curves qualified, decision matrix applied; details: for CD54/Cell Result: qualified dose response curve (increasing/flat/decreasing) of CD54 intensity per cell; for CD54/Cell Result / Cell Number Result: U937 cells, 24 hours compound treatment, range of concentrations; for Cell Number Result: qualified dose response curve (increasing/flat/decreasing) of number of cells; for Outcome: skin sensitivity prediction from decision matrix of FIG. 8 (CD54/cell vs cell number), Toxic* = at concentrations tested
Excerpt: as §1, §2, §3, §4, §5, §6, §7, §8, §9, §10

Compound: C[S+](C)[O-] [DMSO]
- Outcome (U937 cells [1]): Non-sensitizer
- CD54/Cell Result (U937 cells [2]): Decrease
- Cell Number Result (U937 cells [2]): Increase

Compound: Butanol
- CD54/Cell Result (U937 cells [2]): Flat
- Cell Number Result (U937 cells [2]): Increase

Compound: CC(O)CO (centres unmarked) [Propylene Glycol]
- CD54/Cell Result (U937 cells [2]): Decrease
- Cell Number Result (U937 cells [2]): Flat
- Outcome (U937 cells [2]): Non-sensitizer

Compound: CCOc1cc(C=O)ccc1O [Ethyl Vanillin]
- Outcome (U937 cells [1]): Toxic*
- CD54/Cell Result (U937 cells [2]): Decrease
- Cell Number Result (U937 cells [2]): Decrease

Compound: CCO [Ethanol]
- CD54/Cell Result (U937 cells [2]): Decrease
- Cell Number Result (U937 cells [2]): Increase
- Outcome (U937 cells [2]): Non-sensitizer

Compound: CC(O)C(=O)O (centres unmarked) [Lactic Acid]
- CD54/Cell Result (U937 cells [2]): Decrease
- Cell Number Result (U937 cells [2]): Decrease
- Outcome (U937 cells [2]): Toxic*

Compound: CC(C)=O [Acetone]
- CD54/Cell Result (U937 cells [2]): Increase
- Cell Number Result (U937 cells [2]): Decrease
- Outcome (U937 cells [2]): Sensitizer

Compound: CCCCCCCCCCCCOS(=O)(=O)[O-].[Na+] [Sodium Lauryl Sulfate]
- CD54/Cell Result (U937 cells [2]): Increase
- Cell Number Result (U937 cells [2]): Increase
- Outcome (U937 cells [2]): Sensitizer

Compound: CN(C)C=O [DMF]
- Outcome (U937 cells [1]): Sensitizer
- CD54/Cell Result (U937 cells [2]): Increase
- Cell Number Result (U937 cells [2]): Increase

Compound: CCCCCCCC/C=C\CCCCCCCC(=O)OCCOCC(OCCO)C1OCC(OCCO)C1OCCO (centres unmarked) [Tween 80]
- CD54/Cell Result (U937 cells [2]): Decrease
- Cell Number Result (U937 cells [2]): Increase
- Outcome (U937 cells [2]): Non-sensitizer

Compound: CC(C)=CCC/C(C)=C/CO [Geraniol]
- CD54/Cell Result (U937 cells [2]): Increase
- Cell Number Result (U937 cells [2]): Increase
- Outcome (U937 cells [2]): Sensitizer

Compound: O=C(O)c1ccccc1O [Salicylic Acid]
- CD54/Cell Result (U937 cells [2]): Decrease
- Cell Number Result (U937 cells [2]): Decrease
- Outcome (U937 cells [2]): Toxic*

Compound: N#CCCC(Br)(C#N)CBr (centres unmarked) [2bromo-2bromomethylglutaronitrile]
- CD54/Cell Result (U937 cells [2]): Decrease
- Outcome (U937 cells [2]): Toxic*

Compound: OCC(O)CO [Glycerol]
- CD54/Cell Result (U937 cells [2]): Flat
- Outcome (U937 cells [2]): Non-sensitizer

Compound: CCOC(=O)c1ccccc1C(=O)OCC [Diethyl Phthalate]
- CD54/Cell Result (U937 cells [2]): Decrease
- Cell Number Result (U937 cells [2]): Decrease
- Outcome (U937 cells [2]): Toxic*

Compound: C=CC(=O)OCCO [2hydroxyethylacrylate]
- CD54/Cell Result (U937 cells [2]): Increase
- Cell Number Result (U937 cells [2]): Increase
- Outcome (U937 cells [2]): Sensitizer

Compound: CC(C)O [Isopropanol]
- CD54/Cell Result (U937 cells [2]): Decrease
- Outcome (U937 cells [2]): Non-sensitizer

Compound: O=Cc1ccccc1 [Benzylaldehyde]
- CD54/Cell Result (U937 cells [2]): Increase
- Cell Number Result (U937 cells [2]): Increase
- Outcome (U937 cells [2]): Sensitizer

Compound: CCCCCCCC(=O)O [Octanoic Acid]
- CD54/Cell Result (U937 cells [2]): Increase
- Cell Number Result (U937 cells [2]): Increase
- Outcome (U937 cells [2]): Sensitizer

Compound: NCCNc1ccccc1 [Phenylethylenediamine]
- CD54/Cell Result (U937 cells [2]): Decrease
- Cell Number Result (U937 cells [2]): Increase
- Outcome (U937 cells [2]): Non-sensitizer

Compound: O=CC=O [Glyoxal]
- CD54/Cell Result (U937 cells [2]): Increase
- Cell Number Result (U937 cells [2]): Decrease
- Outcome (U937 cells [2]): Sensitizer

Compound: Nc1ccccc1O [2-aminophenol]
- CD54/Cell Result (U937 cells [2]): Increase
- Cell Number Result (U937 cells [2]): Increase
- Outcome (U937 cells [2]): Sensitizer
